Values quoted from earlier work, collected in patent publication US5939423A, “Treatment of hepatitis B infection with thymosin alpha 1 and famciclovir” (priority 1997, dated 1999).
Ends that are not written are not given here.

What was measured:
[1] = not given; remark: listed apart in the source
[2] = single and repeat doses up to 1000 mg three times daily for six days
[3] = more than 3000 patients
[4] = system: duck hepatitis B virus; settings: for maintenance of suppression of HBV DNA and DNA polymerase during treatment: 21 days of treatment; for maintenance of suppression of HBV DNA and DNA polymerase during treatment / DNA polymerase level / HBV DNA level: oral twice a day, penciclovir 20 and 100 mg/kg, famciclovir 5 and 25 mg/kg; for inhibition of duck hepatitis B viral replication: Peking duck; for HBV DNA and DNA polymerase levels after the post-dosing suppression: later than two days after dosing had stopped; for DNA polymerase level / HBV DNA level: within two days of start
[5] = system: HBV; settings: 10 day course, 250 mg or 500 mg tid
[6] = system: HBV; settings: named patients
[7] = system: HBV; settings: in vivo
[8] = system: HBV; settings: preliminary data; up to 500 mg three times a day for 16 weeks
[9] = system: herpes simplex
[10] = system: zoster
[11] = system: HBV
[12] = system: T cells
[13] = system: normal human lymphocytes
[14] = system: T4 (helper/inducer)cells; settings: by activation of the T4 (helper/inducer) cells
[15] = system: HBV infection; settings: treatment of HBV infection
[16] = system: anti-HBs; settings: previously non-reactive hemodialysis patients
[17] = system: woodchuck hepatitis virus (WHV)
[18] = system: HBV; remark: listed apart in the source
[19] = system: HBV; remark: listed apart in the source
[20] = system: HBV; settings: 1.45 to 1.75 mg (adults) per twice-weekly injection
[21] = in vivo
[22] = system: HBV; remark: listed apart in the source
[23] = 12 patients received TF5 or Tα1, p<0.004 vs placebo, Fisher's exact test
[24] = during the 1 yr study or post study follow up, p<0.11 vs placebo
[25] = n = 49, 1.6 mg s.c. 2×/week, 6 months, p value 0.084 vs placebo
[26] = n = 49, 1.6 mg s.c. 2×/week, 6 months, p value ns

CC(=O)OCC(CCn1cnc2cnc(N)nc21)COC(C)=O [famciclovir, diacetylester of 6-deoxy penciclovir]
conversion to penciclovir (removal of one ester group): partly in the intestinal wall
completion of conversion to penciclovir (removal of remaining ester group, oxidation at the 6-position): completed in the liver
absorption ([1]; oral, volunteers): well absorbed
drug-related adverse effects on clinical laboratory values, blood pressure, heart rates or ECG measurements [2]: no evidence of drug-related adverse effects
most common adverse experiences [3]: headache, nausea and diarrhea
maintenance of suppression of HBV DNA and DNA polymerase during treatment [4]: maintained this suppression during the 21 days
inhibition of duck hepatitis B viral replication [4]: clearly inhibit
suppression of viral replication after dosing had stopped [4]: remained suppressed for at least two days
HBV DNA and DNA polymerase levels after the post-dosing suppression [4]: returned to pre-treatment levels
DNA polymerase level [4]: undetectable
HBV DNA level [4]: undetectable
fall in HBV DNA levels ([5]; in 6 of 11 evaluable patients): greater than 90%
evaluable patients with greater than 90% fall in HBV DNA levels ([5]; of 11 evaluable patients): 6
efficacy in patients with HBV reinfection following liver transplantation [6]: shown efficacy
safety profile [7]: good safety profile
suppressing HBV replication [7]: effective in suppressing HBV replication
reduction in HBV DNA and ALT levels [8]: significant reduction

Nc1ccn([C@@H]2CS[C@H](CO)O2)c(=O)n1 [lamivudine]
safety profile [7]: good safety profile
suppressing HBV replication [7]: effective in suppressing HBV replication

Nc1nc2c(ncn2CCC(CO)CO)c(=O)[nH]1 [penciclovir]
efficacy against herpes simplex virus [9]: proven efficacy
efficacy against zoster virus [10]: proven efficacy
Cmax (penciclovir) ([1]; oral penciclovir alone, 5 mg/kg dose): approximately 0.14 microgram/ml
reduction in HBV DNA by 6 day ([11]; 1 microgram/ml, by 6 day): 50%
reduction in HBV DNA by day 9 ([11]; 1 microgram/ml, by day 9): 90%
concentration dependence of HBV DNA reduction ([11]; 2.2.15 hepatoma cells): concentration dependent
inhibition of HBV in human cells ([11]; 2.2.15 hepatoma cells): potent inhibitor
maintenance of suppression of HBV DNA and DNA polymerase during treatment [4]: maintained this suppression during the 21 days
inhibition of duck hepatitis B viral replication [4]: clearly inhibit
suppression of viral replication after dosing had stopped [4]: remained suppressed for at least two days
HBV DNA and DNA polymerase levels after the post-dosing suppression [4]: returned to pre-treatment levels
DNA polymerase level [4]: undetectable
HBV DNA level [4]: undetectable

Tα1: 28 amino acid peptide with a molecular weight of 3108, initially isolated from Thymus Fraction 5, sequenced and chemically synthesized (SDAAVDTSSEITTKDLKEKKEVVEEAEN; ends and bridges not checked; UniProt P06454 2-29, looked up)
modulating the maturation of T cells [12]: activity similar to TF5
lymphocyte IL2 receptor expression [13]: increase
interferon-alpha, interferon-gamma, and IL2 and IL3 production ([13]; normal human lymphocytes): promote
allogenic and autologous human mixed lymphocyte reactions [14]: enhances
immune responsiveness [15]: enhances immune responsiveness
specific lymphocyte parameters [15]: augments specific lymphocyte parameters to significantly higher levels
in vivo production of anti-HBs following Heptavax-B vaccination [16]: enhance
change of WHV DNA replication intermediates from pretreatment levels ([17]; liver biopsy, the other 2 animals, end of treatment): only a small change
treated animals with undetectable WHV DNA levels ([17]; of 6 animals, 10 μg/Kg s.c. twice weekly, 28 weeks): 4
depression of WHV DNA levels ([17]; remaining 2 animals, 10 μg/Kg s.c. twice weekly, 28 weeks): 100 fold
number of patients who cleared serum HBV DNA [18, 23]: Nine
patients who cleared serum HBV DNA [18, 23]: 75%
peripheral blood lymphocyte, CD3 and CD4 counts, and in vitro production of interferon-gamma ([18]; associated with response, over initial values): significant improvements
responders with sustained remission with normal ALT levels and negative serum HBV DNA (using PCR) and HBeAg ([18]; of the responders): About 78%
side effects ([18]; twice weekly for six months): No side effects were observed
serum aminotransferase levels ([18]; twice weekly for six months, conclusion of the study (1 year)): improved significantly
sustained loss of HBV DNA with negative HBeAg [19, 24]: 25%
sustained loss of HBV DNA with negative HBeAg, number of patients [19, 24]: 12
CR (%) (complete response) [19, 25]: 14%
CR (complete response), number of patients [19, 25]: 7
DR (%) (delayed response) [19, 26]: 10%
DR (delayed response), number of patients [19, 26]: 5
IR (%) (incomplete response) [19, 26]: 0%
IR (incomplete response), number of patients [19, 26]: 0
safety and effectiveness in clearing HBV DNA from the blood [20]: safe and effective
local or systemic side effects [21]: no local or systemic side effects have been observed

interferon-alpha
clear HBeAg ([22]; Asian patients): 15-20%
sustained clearance of hepatitis B e antigen (HBeAg) ([22]; North America and European patients): 30-40%
clear HBsAg ([22]; of the Asian patients who clear HBeAg): approximately 10%
ultimately cleared hepatitis B surface antigen (HBsAg) ([22]; of the North America and European patients with HBeAg clearance): 25-65%
